Data set [1] concerns surface-anchored SpA of S. aureus. Put plainly: FITC-IgG binding assay for staphylococcal protein A (SpA). The note with it: Staphylococcus aureus, read-out: SpA fluorescence, relative activity % of the WT group. Type of data set: cell-based. As for the experimental part: Bacterial cultures grown overnight were diluted 1:100 and cultured in an incubator at 37°C with Tax or DMSO to a concentration of 10^8 CFU/mL. The ΔsrtA mutant strain was assayed as a positive control. The bacteria were collected and washed three times in PBS. A 50 μL aliquot of bacterial culture was mixed with an equal volume of FITC-labeled rabbit anti-goat-IgG (1:200, Sigma, United States) then incubated in the dark for 1 h. The bacteria were then washed and suspended in PBS. A multimode microplate reader (Tecan, Spark 20M) was used to measure fluorescence intensity at 535 nm when illuminated at an excitation wavelength of 485 nm.
FIGURE 3 Effect of SrtA inhibitor on virulence-related phenotypes in S. aureus Newman strain. (A) Impact of Tax on the ability of S. aureus to adhere to fibrinogen. (B) Biofilm formation of S. aureus in the presence of different concentrations of Tax. (C) Mature biofilms of S. aureus in the presence of different concentrations of Tax. The ΔsrtA group represented the positive control. (D) Tax affects internalization of S. aureus into A549 cells. […] The number of viable S. aureus in the cells was quantified by serial dilution on TSA agar plates. […] Error bars represent means ± SD of three replicates. *P < 0.05, **P < 0.01, ***P < 0.001 calculated with a two-tailed Student’s t-test.

Data set [2] concerns S. aureus USA300. Put plainly: Growth curve and growth rate. Type of data set: cell-based, Staphylococcus aureus. The method, then:
(§1) A broth microdilution assay was performed to determine the minimum inhibitory concentration (MIC) of Tax for S. aureus USA300, as described elsewhere ([Sader et al., 2013]; [Delgado-Valverde et al., 2017]). A growth curve was further evaluated by adding various concentrations of Tax (0–200 μM) to a bacterial culture, then incubating until an OD600 of 0.3 had been reached. S. aureus USA300 and ΔsrtA were used as controls. The OD600 value was recorded for each sample at 1 h intervals for a total of 24 h. The growth rate between S. aureus treated with Tax and S. aureus USA300 was also calculated at each time point.
(§2) FIGURE 2 Growth curve and cytotoxicity. (A) Growth curves of S. aureus USA300 and the ΔsrtA group with different concentrations of Tax. (B) Growth rate of S. aureus USA300 and S. aureus treated with Tax (25 μM). (C) Percent cell viability of HEK293 (purple) and HepG2 (blue) cells were measured using a CCK-8 assay after incubation with Tax for 24 h.

The subject of a further data set is HEK293 cells. As to the kind of experiment: CCK-8 cytotoxicity assay, HEK293. The data set is classed as cell-based. As for the experimental part: Cytotoxicity was determined using a cell counting kit-8 assay (CCK-8, US EVERBRIGHT, Suzhou, China), as described previously ([Xiao et al., 2018]). HEK293 or HepG2 cells were seeded in 96-well plates (Corning, United States) at a density of 5 × 10^4 cells/well, then incubated at 37°C in an atmosphere containing 5% CO2 for 24 h. The culture medium was then exchanged with fresh medium containing different concentrations of Tax (0–200 μM) or vehicle and incubated for an additional 24 h. CCK-8 solution (10 μL) was carefully added then incubated for 4 h in an incubator at 37°C. The OD value at 450 nm was measured to calculate cell viability.
as §2

Data set [3] has as its target T1, SrtA (Staphylococcus aureus, UniProt Q2FV99).
T1 construct: 6xHis; made in house; host or cells: E. coli BL21 (DE3), plasmid pET28a-SrtA
As to the kind of experiment: Localized surface plasmon resonance (LSPR). Type of data set: binding. As for the experimental part: The interaction between Tax and SrtA was determined using an OpenSPR localized surface plasmon resonance (LSPR) instrument (Nicoya, Canada) at 25°C, as described previously ([Panneer Selvam et al., 2018]; [Song et al., 2019]). Briefly, SrtA proteins were captured on a COOH chip using a standard amine coupling system. A 200 μL aliquot of blocking buffer was added to rinse the sample ring and to remove any air. After a stable baseline had been achieved, the affinity between Tax and SrtA was measured by injecting 20, 40, 80, 160, or 320 μM Tax. The kinetic parameters of the binding reaction were calculated and visualized using TraceDrawer software ([Yang et al., 2011]).
FIGURE 4 Expression of SrtA in the presence of Tax and the interaction of different concentrations of Tax with SrtA. (A) Western blot analysis of SrtA protein from S. aureus treated with various concentrations of Tax and grayscale analysis of SrtA protein bands. (B) LSPR analysis verified the binding affinity of Tax with SrtA. Error bars represent means ± SD of three replicates. ***P < 0.001 calculated with a two-tailed Student’s t-test.

The target in data set [4] is T1, SrtA. As to the kind of experiment: Reversibility of SrtA inhibition (10 × IC50, dilution, FRET assay). To be noted: SrtA treated with 10-fold IC50 of Tax then diluted; compared with control group (DMSO). The data set is classed as biochemical. An excerpt: To identify novel inhibitors of SrtA, an in-house library containing 420 natural compounds was screened, using a FRET assay. […] To further clarify the interacting way of SrtA and Tax, recombinant SrtA was reacted with Tax at a concentration of 10-fold IC50. A total of 85.80 ± 0.67% of SrtA activity was subsequently recovered, compared with the control group (DMSO) (Figure 1C).
FIGURE 1 Inhibition of SrtA transpeptidation. (A) Chemical structure of Tax. (B) Tax inhibits SrtA cleavage of a fluorogenic peptide substrate (Abz-LPATG-Dnp-NH2) in a dose-dependent manner in vitro. Each reaction condition was assayed in triplicate from which the IC50 was determined. (C) Recombinant SrtA was treated with 10 × IC50 of Tax and then diluted, after which transpeptidation activity was measured using a FRET assay. Untreated SrtA (Control) represented 100% activity.

In data set [5] the test system is S. aureus USA300. Put plainly: Broth microdilution susceptibility assay (MIC). To be noted: Staphylococcus aureus, S. aureus USA 300. The data set is classed as cell-based. As for the experimental part:
as §1

SMILES strings stand for the structures. ≈ marks a conversion by molar mass, not a printed value.

T1 sequence (Q2FV99 whole entry): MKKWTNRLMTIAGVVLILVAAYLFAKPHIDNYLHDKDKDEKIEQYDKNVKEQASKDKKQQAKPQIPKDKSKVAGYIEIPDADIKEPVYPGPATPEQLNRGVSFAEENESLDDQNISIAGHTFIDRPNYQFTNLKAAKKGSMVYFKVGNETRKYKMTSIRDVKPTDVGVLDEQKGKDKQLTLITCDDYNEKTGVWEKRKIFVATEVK

Turning to `O=C1c2c(O)cc(O)cc2OC(c2ccc(O)c(O)c2)C1O` (stereo not drawn) [Tax, taxifolin], the activity at 200 µM in data set [1] stood at 36.1 ± 1.59%. Moreover, the “toxicity toward S. aureus” value with S. aureus USA300 [2] (200 μM) was “did not display toxicity”. The “effect on the growth of S. aureus” value in the data set on S. aureus USA300 [2] (at a concentration of IC50 (25 μM), P > 0.05) was “no significant effect”. The “toxicity toward mammalian cells (HEK293)” value in the data set on HEK293 cells (200 μM) is given as “did not display toxicity”. Moreover, the “cytotoxicity toward HEK293 cells” value in the data set on HEK293 cells (at 24.53 ± 0.42 μM, 24 h) is given as “no significant cytotoxicity”. The same compound displayed a Kd at SrtA [3] of 165 µM. The kon on SrtA [3] (read-out: Ka) was 22.3 M⁻¹ s⁻¹. Also, at SrtA [4], the SrtA activity recovered was 85.80 ± 0.67%. The compound further displayed an MIC in the data set with S. aureus USA300 [5] of 512 µg/mL (≈ 1680 µM).

The record behind these values is PMC8290497, “Taxifolin, an Inhibitor of Sortase A, Interferes With the Adhesion of Methicillin-Resistant Staphylococcal aureus” (Frontiers in Microbiology, 2021).
